{"source": "paper PMC10906223", "about": "(JCI Insight, 2024)", "key": {"diabetic NOD mice": {"system": "diabetic NOD mice", "test": "Daily food intake in NOD mice", "format": "in vivo, mouse", "parameters": "Daily food intake (Figure 7E): unit not given here", "settings": "for Daily food intake (Figure 7E): Diabetic, WCDD301 treated", "description": "(§1) We preweighed WCDD301 into microfuge tubes and reconstituted it using deionized water. Using a 10 μL pipette tip, we placed the calculated dose of WCDD301 (at the volume range of 1–1.5 μL) within the center of pearls. WCDD301 was placed into pearls 30–45 minutes before administration. For oral administration of pearls, we designed an applicator using a disposable plastic transfer pipette and syringe plunger lubricated with olive oil. Food intake and body weight in each experimental group (diabetic WCDD301-treated, diabetic placebo-treated, and nondiabetic placebo-treated NOD mice) were monitored daily for 4 weeks. Urine glucose was measured from individually caged NOD mice (nondiabetic placebo treated n = 2, diabetic placebo treated n = 2, and diabetic WCDD301 treated n = 4, 21–23 weeks old) with metabolic cages. Urine glucose was monitored every 24 hours for 10 days by semiquantitative measurements (P-STICKS, Millpledge Veterinary)."}, "[1]": {"system": "dispersed islet cells of donors with T1D", "test": "Glucagon secretion from dispersed islet cells of donors with T1D", "format": "cell-based, human", "settings": "for Secretion of glucagon: dispersed islet cells, T1D donors, one value per donor, Figure 2H", "description": "(§2) Pancreata of nondiabetic C57BL/6J mice were digested using collagenase P (Roche Diagnostics, catalog 11213873001), and islets were manually picked up using a stereomicroscope (ZEISS Stemi 305). […] Isolated mouse islets or provided human islets were dispersed as described ([28]). Briefly, 100–120 islets were washed 2 times using modified HBSS, then dispersed in 600 μL Accutase (Innovative Cell Technologies, catalog AT-104) by gently pipetting up and down for 7 minutes at 37°C. […] Following refreshing of KRBH, cells were dispensed in 8 microfuge tubes (2,000 cells/tube) and treated with WCDD301, preclustered Ephrin-A5 Fc, or preclustered Fc in the presence or absence of the competitive inhibitor of EphA4 receptor, rhyncophylline ([60]) (MilliporeSigma, catalog SML2345). In the presence or absence of these effectors, secretion assay was performed sequentially as shown in Supplemental Table 5. […] Preclustering of Ephrin-A5 Fc was done by mixing Ephrin-A5 Fc or Fc alone (BioLegend, catalog 790102) with anti-Fc antibody (Invitrogen, catalog A16086) (1:10 molar ratio) 20 minutes before treatment ([62]). […] Shedding of cleaved EphA4 was measured from the cell culture medium. Experiments were performed by dispersion of 200 islets, and EphA4 levels in media were measured by EphA4 ELISA (ABclonal, catalog RK06572).\n(§3) The Integrated Islet Distribution Program provided us human donor islets with their characteristics (Supplemental Table 6). Islets were centrifuged at 500g for 3 minutes, resuspended in CMRL 1066 medium (Gibco, catalog 1150-037) containing 11 mM glucose, and rested in an incubator overnight.\n(§4) For the hormone secretion assay, islets or dispersed islet cells were adapted in KRBH buffer containing 11 mM glucose for 1 hour. Then, after 2 washes in HBSS containing 11 mM glucose, islets or cells were treated in the following sequential order in the presence or absence of WCDD301: incubation in KRBH (1 mM glucose, 30 minutes) followed by medium collection, incubation in KRBH (11 mM glucose, 30 minutes) followed by medium collection."}, "nondiabetic NOD mice": {"system": "nondiabetic NOD mice", "test": "Blood glucose in nondiabetic NOD mice under WCDD301 dosing", "format": "in vivo, mouse", "parameters": "Blood glucose (Supplemental Figure 6B): unit: mg/dL", "settings": "for Blood glucose (Supplemental Figure 6B): WCDD301-treated, individual mice M1-M5", "description": "(§5) We applied the following therapeutic regimens in the fed state for oral dosing of pearls containing WCDD301. The therapeutic regimen for diabetic NOD mice with moderate hyperglycemia (n = 6–9; 6 females/3 males) or nondiabetic ones with blood glucose levels of < 140 mg/dL (females, n = 5) was dose 7.5 mg/kg, dosage once a day, and excipient SAIB-Agar, 50–60 mg. The therapeutic regimen for STZ-induced diabetic mice with early severe hyperglycemia (n = 3, placebo group; n = 4 treatment group, females) was dose 10 mg/kg, dosage once a day, and excipient SAIB-Agar-malic acid, 50–60 mg."}, "[2]": {"system": "dispersed islet cells of donors with T1D", "test": "Insulin secretion from dispersed islet cells of donors with T1D", "format": "cell-based, human", "settings": "for Secretion of insulin: dispersed islet cells, T1D donors, one value per donor, Figure 2J", "description": "as §2, §3, §4"}, "[3]": {"system": "human donor dispersed islet cells", "test": "Somatostatin secretion from non-diabetic human donor dispersed islet cells", "format": "cell-based", "description": "as §2, §3, §4"}, "[4]": {"system": "STZ-induced diabetic mice", "test": "Blood glucose in STZ-induced diabetic mice, once-daily oral WCDD301", "format": "in vivo, mouse", "parameters": "Blood glucose: unit: mg/dL", "settings": "for Blood glucose: WCDD301 10 mg/kg oral once daily, 10 mg/kg", "description": "Six cohorts of C57BL/6 mice (n = 10 each, equal numbers of females and males; the Jackson Laboratory) were fasted for 5 hours and injected intraperitoneally with 40 mg/kg STZ solution (MilliporeSigma, catalog 572201) for 5 consecutive days. STZ solution (40 mg/mL) was prepared within 5 minutes before injection using freshly prepared citrate buffer (0.1 M, pH 4.5). Nine days after the last injection, blood glucose levels were measured for 2 consecutive days, and those animals with constant values of 300 ± 20 mg/dL were considered as having early severe hyperglycemia.\nWe prepared sustained time-release pearls for oral administration in the mouse models. To this end, we combined FDA-approved excipients of Eastman BioSustane SAIB NF (product code: 41271-00, sample distribution from Eastman Company, Kingsport, Tennessee, USA; provided by Phillip Cook) and Agar (Lamda Biotech, catalog C110) at the ratio of 1:1.45 (w/w). We also prepared another type of sustained time-release pearl by mixing SAIB, Agar, and L (-) malic acid (MilliporeSigma, catalog 202-601-5) at the ratio of 1:1.4:0.2 (w/w/w). A homogenous paste mixture was prepared, and pearls were formed with 50–60 mg weight and approximately 2 mm diameter by pinching off the mixture and manually rolling.\nas §1, §5"}, "[5]": {"settings": "dispersed islet cells from donors with long-standing T1D"}}, "note": "“And” between values parts separate entries of the source, which are not always exact repeats. Equal entries are not always repeated.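 Throughout, for Secretion of insulin: insulin concentration in collected medium by Lumit immunoassay.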"}
{"smiles": "CC(=O)OCC(N)(COC(C)=O)COC(C)=O", "note": "[WCDD301, 2-(acetoxymethyl)-2-aminopropane-1,3-diyl diacetate]", "values": [{"measurement": "Daily food intake (Figure 7E)", "setting": "diabetic NOD mice; Day 1", "value": "188.5 and 161.1 and 187.4 and 162.1"}, {"measurement": "Daily food intake (Figure 7E)", "setting": "diabetic NOD mice; Day 2", "value": "210.5 and 168.9 and 209.3 and 170"}, {"measurement": "Daily food intake (Figure 7E)", "setting": "diabetic NOD mice; Day 3", "value": "184.2 and 168.9 and 183.1 and 170"}, {"measurement": "Daily food intake (Figure 7E)", "setting": "diabetic NOD mice; Day 4", "value": "192.5 and 167.7"}, {"measurement": "Daily food intake (Figure 7E)", "setting": "diabetic NOD mice; Day 7", "value": "203.2 and 168.3 and 202 and 169.4"}, {"measurement": "Daily food intake (Figure 7E)", "setting": "diabetic NOD mice; Day 8", "value": "200 and 184.4 and 198.8 and 185.5"}, {"measurement": "Daily food intake (Figure 7E)", "setting": "diabetic NOD mice; Day 9", "value": "226.3 and 184.4 and 225 and 185.5"}, {"measurement": "Daily food intake (Figure 7E)", "setting": "diabetic NOD mice; Day 10", "value": "211.6 and 161.9 and 188.3 and 170.8"}, {"measurement": "Daily food intake (Figure 7E)", "setting": "diabetic NOD mice; Day 11", "value": "185.1 and 169.8 and 210.3 and 170.8"}, {"measurement": "Daily food intake (Figure 7E)", "setting": "diabetic NOD mice; Day 12", "value": "193.5 and 169.8 and 184 and 169.5"}, {"measurement": "Daily food intake (Figure 7E)", "setting": "diabetic NOD mice; Day 13", "value": "182.7 and 168.5 and 192.3 and 160.2"}, {"measurement": "Daily food intake (Figure 7E)", "setting": "diabetic NOD mice; Day 14", "value": "191.2 and 159.2 and 181.6"}, {"measurement": "Daily food intake (Figure 7E)", "setting": "diabetic NOD mice; Day 15", "value": "204.2 and 190.1 and 190 and 170.2"}, {"measurement": "Daily food intake (Figure 7E)", "setting": "diabetic NOD mice; Day 16", "value": "201 and 169.2 and 203 and 186.4"}, {"measurement": "Daily food intake (Figure 7E)", "setting": "diabetic NOD mice; Day 17", "value": "227.4 and 185.3 and 199.8 and 186.4"}, {"measurement": "Daily food intake (Figure 7E)", "setting": "diabetic NOD mice; Day 18", "value": "190.4 and 185.3 and 226.1 and 163.7"}, {"measurement": "Daily food intake (Figure 7E)", "setting": "diabetic NOD mice; Day 19", "value": "212.6 and 162.7 and 189.2 and 171.7"}, {"measurement": "Daily food intake (Figure 7E)", "setting": "diabetic NOD mice; Day 20", "value": "186.1 and 170.6 and 211.4 and 171.7"}, {"measurement": "Daily food intake (Figure 7E)", "setting": "diabetic NOD mice; Day 21", "value": "194.4 and 170.6 and 184.9 and 170.4"}, {"measurement": "Daily food intake (Figure 7E)", "setting": "diabetic NOD mice; Day 22", "value": "183.6 and 169.3 and 193.3 and 161"}, {"measurement": "Daily food intake (Figure 7E)", "setting": "diabetic NOD mice; Day 23", "value": "192.1 and 160 and 182.5 and 192.2"}, {"measurement": "Daily food intake (Figure 7E)", "setting": "diabetic NOD mice; Day 24", "value": "205.2 and 191 and 171"}, {"measurement": "Daily food intake (Figure 7E)", "setting": "diabetic NOD mice; Day 25", "value": "202 and 170 and 204 and 187.3"}, {"measurement": "Daily food intake (Figure 7E)", "setting": "diabetic NOD mice; Day 26", "value": "228.6 and 186.2 and 200.8 and 187.3"}, {"measurement": "Daily food intake (Figure 7E)", "setting": "diabetic NOD mice; Day 27", "value": "177.9 and 175.1 and 174 and 179"}, {"measurement": "Daily food intake (Figure 7E)", "setting": "diabetic NOD mice; Day 28", "value": "225.9 and 175.3 and 174.1 and 226.9"}, {"measurement": "Food intake, daily monitoring", "setting": "diabetic NOD mice; diabetic WCDD301-treated mice", "value": "phenotypes similar to nondiabetic placebo-treated mice"}, {"measurement": "Effect on glucagon secretion", "setting": "[1]; [5]", "value": "reduced glucagon secretion"}, {"measurement": "Secretion of glucagon", "setting": "[1]; 1 mM glucose", "value": "13.445 and 14.59"}, {"measurement": "Secretion of glucagon", "setting": "[1]; 11 mM glucose", "value": "27.55 and 31.85"}, {"measurement": "Development of diabetes, prophylactic administration", "setting": "nondiabetic NOD mice; NOD mice", "value": "appears to prevent the development of diabetes in NOD mice"}, {"measurement": "Blood glucose (Supplemental Figure 6B)", "setting": "nondiabetic NOD mice; Age (week) 10", "value": "127 and 120 and 125 and 115 and 118"}, {"measurement": "Blood glucose (Supplemental Figure 6B)", "setting": "nondiabetic NOD mice; Age (week) 19", "value": "128 and 122 and 121 and 112 and 126"}, {"measurement": "Effect on euglycemia", "setting": "nondiabetic NOD mice; nondiabetic NOD mice, Supplemental Figure 6B", "value": "nor did it affect euglycemia"}, {"measurement": "Effect on insulin secretion", "setting": "[2]; [5]", "value": "no effect on the minimal residual insulin secretion"}, {"measurement": "Secretion of insulin", "setting": "[2]; 1 mM glucose", "value": "0.0567 and 0.08"}, {"measurement": "Secretion of insulin", "setting": "[2]; 11 mM glucose", "value": "0.07 and 0.05"}, {"measurement": "Effect on somatostatin secretion", "setting": "[3]; 1, 3 or 6 hours, Supplemental Figure 4A-C", "value": "no effect on somatostatin secretion"}, {"measurement": "Somatostatin secretion (Supplemental Figure 4D; quantity not given)", "setting": "[3]; WCDD301", "value": "1740.7 and 1280.5 and 1500.0"}, {"measurement": "Effect on hyperglycemia", "setting": "[4]; 4-week dosing", "value": "normalized hyperglycemia"}, {"measurement": "Blood glucose", "setting": "[4]; Week 1, per mouse, before dosing 277-300, Figure 6F", "value": "205 and 210 and 206 and 240"}, {"measurement": "Blood glucose", "setting": "[4]; Week 2, per mouse, Figure 6F", "value": "180 and 170 and 145 and 210"}, {"measurement": "Blood glucose", "setting": "[4]; Week 3, per mouse, Figure 6F", "value": "145 and 150 and 135 and 156"}, {"measurement": "Blood glucose", "setting": "[4]; Week 4, per mouse, Figure 6F", "value": "125 and 119 and 121 and 130"}]}
